# In the supplement of paper PMC10307832:
# Columns and labels:
# Assay in all cases: relative viability (nuclei count vs DMSO), 5 days (fraction); higher = more cells survive
# Cediranib + Pemetrexed = compound: COc1cc2c(Oc3ccc4[nH]c(C)cc4c3F)ncnc2cc1OCCCN1CCCC1 [Cediranib] + Nc1nc2[nH]cc(CCc3ccc(C(=O)N[C@@H](CCC(=O)O)C(=O)O)cc3)c2c(=O)[nH]1 [Pemetrexed] (partner 0.2 µM)
# Summary of the method: (§1)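 Nuclei were stained with Hoechst during a one-step fixation (final 0.05% Triton X-100, 1% formaldehyde, 1 ug/ml Hoechst) carried out 5 days after dosing, then counted on 4× images. The cells, lung cancer lines in 1536-well plates, had been dosed by pin tool the day after seeding with one drug alone or a fixed anchor-drug dose plus five library-drug doses (not always all listed) in √10 steps. Relative viability is the nuclei count in treated wells divided by that in vehicle wells, and each value is the median of duplicate plates.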
# Halofuginone + OSI-027 = compound: O=C(C[C@H]1NCCC[C@@H]1O)Cn1cnc2cc(Br)c(Cl)cc2c1=O (racemic) [Halofuginone] + COc1cccc2cc(-c3nc([C@H]4CC[C@H](C(=O)O)CC4)n4ncnc(N)c34)[nH]c12 [OSI-027] (partner 0.5 µM)
# Summary of the method: as §1
# Cediranib + Pictilisib = compound: COc1cc2c(Oc3ccc4[nH]c(C)cc4c3F)ncnc2cc1OCCCN1CCCC1 [Cediranib] + CS(=O)(=O)N1CCN(Cc2cc3nc(-c4cccc5[nH]ncc45)nc(N4CCOCC4)c3s2)CC1 [Pictilisib] (partner 1 µM)
# Summary of the method: as §1
# [1] = compound: O=C(C[C@H]1NCCC[C@@H]1O)Cn1cnc2cc(Br)c(Cl)cc2c1=O (racemic) [Halofuginone] + C[C@]1(O)C[C@@H](c2nc(-c3ccc4ccc(-c5ccccc5)nc4c3)c3c(N)nccn32)C1 [Linsitinib] (partner 1 µM)
# Summary of the method: as §1
cell line,measurement,setting,value
ChaGo-K-1,relative viability,Cediranib + Pemetrexed; first compound 0.04 µM,0.262
same,relative viability,Cediranib + Pemetrexed; first compound 0.1265 µM,0.261
same,relative viability,Cediranib + Pemetrexed; first compound 0.4 µM,0.297
same,relative viability,Cediranib + Pemetrexed; first compound 1.265 µM,0.252
same,relative viability,Cediranib + Pemetrexed; first compound 4 µM,0.263
same,relative viability,Halofuginone + OSI-027; first compound 0.001 µM,0.537
same,relative viability,Halofuginone + OSI-027; first compound 0.003162 µM,0.605
same,relative viability,Halofuginone + OSI-027; first compound 0.01 µM,0.528
same,relative viability,Halofuginone + OSI-027; first compound 0.03162 µM,0.537
same,relative viability,Halofuginone + OSI-027; first compound 0.1 µM,0.501
same,relative viability,Cediranib + Pictilisib; first compound 0.04 µM,0.805
same,relative viability,Cediranib + Pictilisib; first compound 0.4 µM,0.7
same,relative viability,Cediranib + Pictilisib; first compound 1.265 µM,0.852
same,relative viability,Cediranib + Pictilisib; first compound 4 µM,0.639
EBC-1,relative viability,Cediranib + Pictilisib; first compound 0.04 µM,0.417
same,relative viability,Cediranib + Pictilisib; first compound 0.1265 µM,0.516
same,relative viability,Cediranib + Pictilisib; first compound 0.4 µM,0.402
same,relative viability,Cediranib + Pictilisib; first compound 1.265 µM,0.407
same,relative viability,Cediranib + Pictilisib; first compound 4 µM,0.467
same,relative viability,[1]; first compound 0.001 µM,0.959
same,relative viability,[1]; first compound 0.003162 µM,1.07
same,relative viability,[1]; first compound 0.01 µM,0.784
same,relative viability,[1]; first compound 0.03162 µM,0.656
same,relative viability,[1]; first compound 0.1 µM,0.251
EKVX,relative viability,Cediranib + Pemetrexed; first compound 0.04 µM,0.512
same,relative viability,Cediranib + Pemetrexed; first compound 0.1265 µM,0.412
same,relative viability,Cediranib + Pemetrexed; first compound 0.4 µM,0.384
same,relative viability,Cediranib + Pemetrexed; first compound 4 µM,0.441
same,relative viability,Halofuginone + OSI-027; first compound 0.001 µM,0.656
same,relative viability,Halofuginone + OSI-027; first compound 0.003162 µM,0.789
same,relative viability,Halofuginone + OSI-027; first compound 0.01 µM,0.773
same,relative viability,Halofuginone + OSI-027; first compound 0.03162 µM,0.499
same,relative viability,Halofuginone + OSI-027; first compound 0.1 µM,0.539
same,relative viability,Cediranib + Pictilisib; first compound 0.04 µM,0.408
same,relative viability,Cediranib + Pictilisib; first compound 0.1265 µM,0.563
same,relative viability,Cediranib + Pictilisib; first compound 0.4 µM,0.427
same,relative viability,Cediranib + Pictilisib; first compound 1.265 µM,0.487
same,relative viability,Cediranib + Pictilisib; first compound 4 µM,0.383
same,relative viability,[1]; first compound 0.001 µM,1.02
same,relative viability,[1]; first compound 0.003162 µM,0.966
same,relative viability,[1]; first compound 0.01 µM,0.916
same,relative viability,[1]; first compound 0.03162 µM,1.06
same,relative viability,[1]; first compound 0.1 µM,0.762
EMC-BAC-2,relative viability,Cediranib + Pemetrexed; first compound 0.04 µM,0.565
same,relative viability,Cediranib + Pemetrexed; first compound 0.1265 µM,0.47
same,relative viability,Cediranib + Pemetrexed; first compound 0.4 µM,0.433
same,relative viability,Cediranib + Pemetrexed; first compound 1.265 µM,0.464
same,relative viability,Cediranib + Pemetrexed; first compound 4 µM,0.477
same,relative viability,Halofuginone + OSI-027; first compound 0.001 µM,0.4
same,relative viability,Halofuginone + OSI-027; first compound 0.003162 µM,0.397
same,relative viability,Halofuginone + OSI-027; first compound 0.01 µM,0.38
same,relative viability,Halofuginone + OSI-027; first compound 0.03162 µM,0.4
same,relative viability,Halofuginone + OSI-027; first compound 0.1 µM,0.315
same,relative viability,Cediranib + Pictilisib; first compound 0.04 µM,0.568
same,relative viability,Cediranib + Pictilisib; first compound 0.1265 µM,0.54
same,relative viability,Cediranib + Pictilisib; first compound 0.4 µM,0.538
same,relative viability,Cediranib + Pictilisib; first compound 1.265 µM,0.443
same,relative viability,Cediranib + Pictilisib; first compound 4 µM,0.555
same,relative viability,[1]; first compound 0.001 µM,0.813
same,relative viability,[1]; first compound 0.003162 µM,0.872
same,relative viability,[1]; first compound 0.01 µM,0.798
same,relative viability,[1]; first compound 0.03162 µM,0.785
same,relative viability,[1]; first compound 0.1 µM,0.641
EPLC-272H,relative viability,Cediranib + Pemetrexed; first compound 0.04 µM,0.361
same,relative viability,Cediranib + Pemetrexed; first compound 0.1265 µM,0.345
same,relative viability,Cediranib + Pemetrexed; first compound 0.4 µM,0.375
same,relative viability,Cediranib + Pemetrexed; first compound 1.265 µM,0.37
same,relative viability,Cediranib + Pemetrexed; first compound 4 µM,0.282
same,relative viability,Halofuginone + OSI-027; first compound 0.001 µM,0.342
same,relative viability,Halofuginone + OSI-027; first compound 0.003162 µM,0.278
same,relative viability,Halofuginone + OSI-027; first compound 0.01 µM,0.262
same,relative viability,Halofuginone + OSI-027; first compound 0.03162 µM,0.29
same,relative viability,Halofuginone + OSI-027; first compound 0.1 µM,0.257
same,relative viability,Cediranib + Pictilisib; first compound 0.04 µM,0.322
same,relative viability,Cediranib + Pictilisib; first compound 0.4 µM,0.346
same,relative viability,Cediranib + Pictilisib; first compound 1.265 µM,0.305
same,relative viability,Cediranib + Pictilisib; first compound 4 µM,0.248
same,relative viability,[1]; first compound 0.001 µM,1.28
same,relative viability,[1]; first compound 0.003162 µM,1.17
same,relative viability,[1]; first compound 0.01 µM,1.06
same,relative viability,[1]; first compound 0.03162 µM,1.2
same,relative viability,[1]; first compound 0.1 µM,1.13
H3255,relative viability,Cediranib + Pemetrexed; first compound 0.04 µM,0.588
same,relative viability,Cediranib + Pemetrexed; first compound 0.1265 µM,0.542
same,relative viability,Cediranib + Pemetrexed; first compound 0.4 µM,0.567
same,relative viability,Cediranib + Pemetrexed; first compound 1.265 µM,0.533
same,relative viability,Cediranib + Pemetrexed; first compound 4 µM,0.54
same,relative viability,Halofuginone + OSI-027; first compound 0.001 µM,0.598
same,relative viability,Halofuginone + OSI-027; first compound 0.003162 µM,0.55
same,relative viability,Halofuginone + OSI-027; first compound 0.01 µM,0.602
same,relative viability,Halofuginone + OSI-027; first compound 0.03162 µM,0.601
same,relative viability,Halofuginone + OSI-027; first compound 0.1 µM,0.553
same,relative viability,Cediranib + Pictilisib; first compound 0.04 µM,0.533
same,relative viability,Cediranib + Pictilisib; first compound 0.1265 µM,0.525
same,relative viability,Cediranib + Pictilisib; first compound 0.4 µM,0.409
same,relative viability,Cediranib + Pictilisib; first compound 1.265 µM,0.494
same,relative viability,Cediranib + Pictilisib; first compound 4 µM,0.446
same,relative viability,[1]; first compound 0.001 µM,0.913
same,relative viability,[1]; first compound 0.003162 µM,0.952
same,relative viability,[1]; first compound 0.01 µM,0.876
same,relative viability,[1]; first compound 0.03162 µM,0.941
same,relative viability,[1]; first compound 0.1 µM,0.805
HARA,relative viability,Cediranib + Pemetrexed; first compound 0.04 µM,0.194
same,relative viability,Cediranib + Pemetrexed; first compound 0.1265 µM,0.248
same,relative viability,Cediranib + Pemetrexed; first compound 0.4 µM,0.28
same,relative viability,Cediranib + Pemetrexed; first compound 1.265 µM,0.303
same,relative viability,Cediranib + Pemetrexed; first compound 4 µM,0.299
same,relative viability,Halofuginone + OSI-027; first compound 0.001 µM,0.68
same,relative viability,Halofuginone + OSI-027; first compound 0.003162 µM,0.631
same,relative viability,Halofuginone + OSI-027; first compound 0.01 µM,0.536
same,relative viability,Halofuginone + OSI-027; first compound 0.03162 µM,0.566
same,relative viability,Halofuginone + OSI-027; first compound 0.1 µM,0.399
same,relative viability,Cediranib + Pictilisib; first compound 0.04 µM,0.269
same,relative viability,Cediranib + Pictilisib; first compound 0.1265 µM,0.684
same,relative viability,Cediranib + Pictilisib; first compound 0.4 µM,0.393
same,relative viability,Cediranib + Pictilisib; first compound 1.265 µM,0.481
same,relative viability,Cediranib + Pictilisib; first compound 4 µM,0.37
same,relative viability,[1]; first compound 0.001 µM,1.02
same,relative viability,[1]; first compound 0.003162 µM,0.981
same,relative viability,[1]; first compound 0.01 µM,0.79
same,relative viability,[1]; first compound 0.03162 µM,1.02
same,relative viability,[1]; first compound 0.1 µM,0.828
HCC-15,relative viability,Cediranib + Pemetrexed; first compound 0.04 µM,0.209
same,relative viability,Cediranib + Pemetrexed; first compound 0.1265 µM,0.222
same,relative viability,Cediranib + Pemetrexed; first compound 0.4 µM,0.226
same,relative viability,Cediranib + Pemetrexed; first compound 1.265 µM,0.218
same,relative viability,Cediranib + Pemetrexed; first compound 4 µM,0.22
same,relative viability,Halofuginone + OSI-027; first compound 0.001 µM,0.709
same,relative viability,Halofuginone + OSI-027; first compound 0.003162 µM,0.667
same,relative viability,Halofuginone + OSI-027; first compound 0.01 µM,0.644
same,relative viability,Halofuginone + OSI-027; first compound 0.03162 µM,0.709
same,relative viability,Halofuginone + OSI-027; first compound 0.1 µM,0.509
same,relative viability,Cediranib + Pictilisib; first compound 0.04 µM,0.602
same,relative viability,Cediranib + Pictilisib; first compound 0.4 µM,0.699
same,relative viability,Cediranib + Pictilisib; first compound 1.265 µM,0.686
same,relative viability,Cediranib + Pictilisib; first compound 4 µM,0.987
same,relative viability,[1]; first compound 0.001 µM,0.914
same,relative viability,[1]; first compound 0.003162 µM,0.908
same,relative viability,[1]; first compound 0.01 µM,0.839
same,relative viability,[1]; first compound 0.03162 µM,0.92
same,relative viability,[1]; first compound 0.1 µM,0.688
HCC-44,relative viability,Cediranib + Pemetrexed; first compound 0.04 µM,0.695
same,relative viability,Cediranib + Pemetrexed; first compound 0.1265 µM,0.589
same,relative viability,Cediranib + Pemetrexed; first compound 0.4 µM,0.637
same,relative viability,Cediranib + Pemetrexed; first compound 1.265 µM,0.656
same,relative viability,Cediranib + Pemetrexed; first compound 4 µM,0.682
same,relative viability,Halofuginone + OSI-027; first compound 0.001 µM,0.505
same,relative viability,Halofuginone + OSI-027; first compound 0.003162 µM,0.613
same,relative viability,Halofuginone + OSI-027; first compound 0.01 µM,0.444
same,relative viability,Halofuginone + OSI-027; first compound 0.03162 µM,0.379
same,relative viability,Halofuginone + OSI-027; first compound 0.1 µM,0.202
same,relative viability,Cediranib + Pictilisib; first compound 0.04 µM,0.589
same,relative viability,Cediranib + Pictilisib; first compound 0.4 µM,0.552
same,relative viability,Cediranib + Pictilisib; first compound 1.265 µM,0.669
same,relative viability,Cediranib + Pictilisib; first compound 4 µM,0.714
same,relative viability,[1]; first compound 0.001 µM,0.67
same,relative viability,[1]; first compound 0.003162 µM,0.678
same,relative viability,[1]; first compound 0.01 µM,0.594
same,relative viability,[1]; first compound 0.03162 µM,0.682
same,relative viability,[1]; first compound 0.1 µM,0.341
